This note sets out measurements from patent US7691889B2, “Antimycobacterial compounds” (Lupin Limited, priority 2002, dated 2010).

Values after ≈ are worked out from the molar mass of the structure shown.

The first assay relates to M. tuberculosis clinical isolates, resistant. Put plainly: microbe, parasite or virus in culture. It is filed as cell-based, Mycobacterium tuberculosis. To be noted: Mycobacterium tuberculosis, read-out: MIC against Clinical isolates Resistant.
For the compound `Cc1ccc(C(=O)CCC(=O)NC[C@H]2CN(c3ccc(-c4nc[nH]n4)c(F)c3)C(=O)O2)c(C)c1` [Compound 43, (S)-N-[[3-(3-fluoro-4-(1,2,4-triazolyl)phenyl)-2-oxo-5-oxazolidinyl]methyl]-4-(2,4-dimethylphenyl)-4-oxobutanamide], the MIC lay within 1 to 2 µg/mL (≈ 2.15 to 4.3 µM).

On to `CC(=O)Nc1ccc(C(=O)CCC(=O)NC[C@H]2CN(c3ccc(-c4nc[nH]n4)c(F)c3)C(=O)O2)cc1` [Compound 50, (S)-N-[[3-(3-fluoro-4-(1,2,4-triazolyl)phenyl)-2-oxo-5-oxazolidinyl]methyl]-4-(4-acetamidophenyl)-4-oxobutanamide], for which the MIC lay within 2 to 4 µg/mL (≈ 4.04 to 8.09 µM). For `CCCc1ccc(C(=O)CCC(=O)NC[C@H]2CN(c3ccc(-c4nc[nH]n4)c(F)c3)C(=O)O2)c(C)c1` [Compound 46, (S)-N-[[3-(3-fluoro-4-(1,2,4-triazolyl)phenyl)-2-oxo-5-oxazolidinyl]methyl]-4-(2′-methyl-4-propylphenyl)-4-oxobutanamide], the MIC was in the range of 2 to 8 µg/mL (≈ 4.05 to 16.2 µM). Regarding `O=C(CCC(=O)c1ccc(Cl)cc1)NC[C@H]1CN(c2ccc(-c3nc[nH]n3)c(F)c2)C(=O)O1` [Compound 49, (S)-N-[[3-(3-fluoro-4-(1,2,4-triazolyl)phenyl)-2-oxo-5-oxazolidinyl]methyl]-4-(4-chlorophenyl)-4-oxobutanamide], the MIC is 4 to 16 µg/mL (≈ 8.48 to 33.9 µM). As to `CC(=O)NC[C@H]1CN(c2ccc(N3CCOCC3)c(F)c2)C(=O)O1` [Linezolid, (S)-N-[[3-[3-fluoro-4-(4-morpholinyl)phenyl]-2-oxo-5-oxazolidin-yl]methyl]-acetamide, reference compound], the MIC lay in the range of 1 to 2 µg/mL (≈ 2.96 to 5.93 µM). In the case of `O=C(CCC(=O)c1cccs1)NC[C@H]1CN(c2ccc(-c3nc[nH]n3)c(F)c2)C(=O)O1` [Compound 47, (S)-N-[[3-(3-fluoro-4-(1,2,4-triazolyl)phenyl)-2-oxo-5-oxazolidinyl]methyl]-4-oxo-4-(2-thienyl)butanamide], the MIC fell in the range of 2 to 4 µg/mL (≈ 4.51 to 9.02 µM).

Still in this assay, the particulars now being: Table I; agar dilution.
As for “(S)-N-[[3-(3-fluoro-4-morpholinylphenyl)-2-oxo-5-oxazolidinyl]methyl]-4-[4-(2′,2′-dimethyl-4-ethylphenyl)-4-oxobutanamide [Compound 20]”, the “MIC against Clinical isolates Resistant” value lay in the range of 2 to 4 µg/mL.

For the compound `O=C(C=CC(=O)c1ccccc1)NC[C@H]1CN(c2ccc(N3CCOCC3)c(F)c2)C(=O)O1` [Compound 34, (S)-N-[[3-(3-fluoro-4-morpholinylphenyl)-2-oxo-5-oxazolidinyl]methyl]-4-oxo-4-phenylbut-2-enamide], the “MIC against Clinical isolates Resistant” value was over 16 µg/mL. With `O=C(CCC(=O)c1cccs1)NC[C@H]1CN(c2ccc(N3CCCC3)c(F)c2)C(=O)O1` [Compound 28, (S)-N-[[3-(3-fluoro-4-pyrrolidinylphenyl)-2-oxo-5-oxazolidinyl]methyl]-4-oxo-4-(2-thienyl)butanamide], the “MIC against Clinical isolates Resistant” value was 2 to 8 µg/mL. Still for that read-out and setting: under `O=C(CCC(=O)c1cccs1)NC[C@H]1CN(c2ccc(N3CCOCC3)c(F)c2)C(=O)O1` [Compound 19, (S)-N-[[3-(3-fluoro-4-morpholinylphenyl)-2-oxo-5-oxazolidinyl]methyl]-4-oxo-4-(2-thienyl)butanamide] stands 2 µg/mL (≈ 4.33 µM); under “(S)-N-[[3-(3-fluoro-4-(1,2,4-triazolyl)phenyl)-2-oxo-5-oxazolidinyl]methyl]-4-(2′,2′-dimethyl-4-ethylphenyl)-4-oxobutanamide [Compound 45]”, 2 to 4 µg/mL. In the case of `COc1ccc(C(=O)CCC(=O)NC[C@H]2CN(c3ccc(N4CCOCC4)c(F)c3)C(=O)O2)cc1` [Compound 13, (S)-N-[[3-(3-fluoro-4-morpholinylphenyl)-2-oxo-5-oxazolidinyl]methyl]-4-(4-methoxyphenyl)-4-oxobutanamide], the “MIC against Clinical isolates Resistant” value fell in the range of 2 to 4 µg/mL. `O=C(CCC(=O)c1ccc2ccccc2c1)NC[C@H]1CN(c2ccc([N+]3([O-])CCOCC3)c(F)c2)C(=O)O1` [Compound 30, (S)-N-[[3-(3-fluoro-4-morpholinylphenyl)-2-oxo-5-oxazolidinyl]methyl]-4-(4-2-naphthyl)-4-oxobutanamide-N-oxide]: the “MIC against Clinical isolates Resistant” value is 0.5 to 2 µg/mL. Turning to `Cc1ccc(C(=O)CCC(=O)NC[C@H]2CN(c3ccc(-n4nnc5ccccc54)c(F)c3)C(=O)O2)c(C)c1` [Compound 27, (S)-N-[[3-(3-fluoro-4-benzotriazolylphenyl)-2-oxo-5-oxazolidinyl]methyl]-4-(2,4-dimethylphenyl)-4-oxobutanamide], the “MIC against Clinical isolates Resistant” value is over 16 µg/mL.

As to `O=C(CCC(=O)c1ccc2ccccc2c1)NC[C@H]1CN(c2ccc(N3CCOCC3)c(F)c2)C(=O)O1` [Compound 16, (S)-N-[[3-(3-fluoro-4-morpholinylphenyl)-2-oxo-5-oxazolidinyl]methyl]-4-(4-2-naphthyl)-4-oxobutanamide], the “MIC against Clinical isolates Resistant” value is 0.5(>16) μg/ml.

On to `CC(C)Cc1ccc(C(=O)CCC(=O)NC[C@H]2CN(c3ccc(N4CCOCC4)c(F)c3)C(=O)O2)cc1` [Compound 17], for which the “MIC against Clinical isolates Resistant” value fell in the range of 0.5 to 1.0 µg/mL. Regarding `O=C(CCC(=O)c1ccc(Cl)cc1)NC[C@H]1CN(c2ccc(N3CCCCC3)c(F)c2)C(=O)O1` [Compound 36, (S)-N-[[3-(3-fluoro-4-piperidylphenyl)-2-oxo-5-oxazolidinyl]methyl]-4-(4-chlorophenyl)-4-oxobutanamide], the “MIC against Clinical isolates Resistant” value was in the range of 4 to 8 µg/mL. As for `CC(C)Cc1ccc(C(=O)CCC(=O)NC[C@H]2CN(c3ccc([N+]4([O-])CCOCC4)c(F)c3)C(=O)O2)cc1` [Compound 33], the “MIC against Clinical isolates Resistant” value fell in the range of 0.5 to 2 µg/mL. On to `Cc1ccc(C(=S)CCC(=O)NC[C@H]2CN(c3ccc(N4CCOCC4)c(F)c3)C(=O)O2)cc1` [Compound 15, (S)-N-[[3-(3-fluoro-4-morpholinylphenyl)-2-oxo-5-oxazolidinyl]methyl]-4-(4-methylphenyl)-4-thiooxobutanamide], for which the “MIC against Clinical isolates Resistant” value was over 16 µg/mL. In the case of `O=C(CCC(=O)c1ccccc1)NC[C@H]1CN(c2ccc(N3CCOCC3)c(F)c2)C(=O)O1` [Compound 1, (S)-N-[[3-(3-fluoro-4-morpholinylphenyl)-2-oxo-5-oxazolidinyl]methyl]-4-oxo-4-phenylbutanamide], the “MIC against Clinical isolates Resistant” value is over 16 µg/mL. The same measure, in the same setting: under `O=C(CCC(=O)c1cccs1)NC[C@H]1CN(c2ccc([N+]3([O-])CCOCC3)c(F)c2)C(=O)O1` [Compound 31, (S)-N-[[3-(3-fluoro-4-morpholinylphenyl)-2-oxo-5-oxazolidinyl]methyl]-4-oxo-4-(2-thienyl)butanamide-N-oxide] stands 1 to 4 µg/mL. Take `Cc1ccc(C(=O)CCC(=O)NC[C@H]2CN(c3ccc(N4CCOCC4)c(F)c3)C(=O)O2)cc1` [Compound 2, (S)-N-[[3-(3-fluoro-4-morpholinylphenyl)-2-oxo-5-oxazolidinyl]methyl]-4-(4-methylphenyl)-4-oxobutanamide]: the “MIC against Clinical isolates Resistant” value was 8 µg/mL (≈ 17 µM). With `CSc1ccc(C(=O)CCC(=O)NC[C@H]2CN(c3ccc(N4CCOCC4)c(F)c3)C(=O)O2)cc1` [Compound 21, (S)-N-[[3-(3-fluoro-4-morpholinylphenyl)-2-oxo-5-oxazolidinyl]methyl]-4-oxo-4-(4-thiomethyl)phenylbutanamide], the “MIC against Clinical isolates Resistant” value is reported as 0.5(>16) μg/ml. Consider `O=C(CCC(=O)c1ccccc1)NC[C@H]1CN(c2ccc(N3CCSCC3)c(F)c2)C(=O)O1` [Compound 8, (S)-N-[[3-(3-fluoro-4-thiomorpholinylphenyl)-2-oxo-5-oxazolidinyl]methyl]-4-oxo-4-phenylbutanamide], for which the “MIC against Clinical isolates Resistant” value lay within 2 to 4 µg/mL. As for `O=C(C=CC(=O)c1ccccc1)NC[C@H]1CN(c2ccc(N3CCCCC3)c(F)c2)C(=O)O1` [Compound 55, (S)-N-[[3-(3-fluoro-4-piperidylphenyl)-2-oxo-5-oxazolidinyl]methyl]-4-oxo-4-phenylbut-2-enamide], the “MIC against Clinical isolates Resistant” value is over 16 µg/mL. In the case of `O=C(CCC(=O)c1ccc(Cl)cc1)NC[C@H]1CN(c2ccc(-n3nnc4ccccc43)c(F)c2)C(=O)O1` [Compound 39, (S)-N-[[3-(3-fluoro-4-benzotriazolylphenyl)-2-oxo-5-oxazolidinyl]methyl]-4-(4-chlorophenyl)-4-oxobutanamide], the “MIC against Clinical isolates Resistant” value lay in the range of 2 to 8 µg/mL. For “(S)-N-[[3-(3-fluoro-4-(1,2,4-triazolyl)phenyl)-2-oxo-5-oxazolidinyl]methyl]-4-oxo-4-phenylbutanamide [Compound 40]”, the “MIC against Clinical isolates Resistant” value fell in the range of 1 to 2 µg/mL. With `CSc1ccc(C(=O)CCC(=O)NC[C@H]2CN(c3ccc(-n4cncn4)c(F)c3)C(=O)O2)cc1` [Compound 44, (S)-N-[[3-(3-fluoro-4-(1,2,4-triazolyl)phenyl)-2-oxo-5-oxazolidinyl]methyl]-4-oxo-4-(4-thiomethylphenyl)butanamide], the “MIC against Clinical isolates Resistant” value was in the range of 1 to 4 µg/mL.

With `CSc1ccc(C(=O)CCC(=O)NC[C@H]2CN(c3ccc(N4CCCC4)c(F)c3)C(=O)O2)cc1` [Compound 56, (S)-N-[[3-(3-fluoro-4-pyrrolidinylphenyl)-2-oxo-5-oxazolidinyl]methyl]-4-oxo-4-(4-thiomethylphenyl)butanamide], the “MIC against Clinical isolates Resistant” value is over 16 µg/mL. Consider `COc1ccc(C(=O)CCC(=O)NC[C@H]2CN(c3ccc(N4CCCCC4)c(F)c3)C(=O)O2)cc1` [Compound 35, (S)-N-[[3-(3-fluoro-4-piperidylphenyl)-2-oxo-5-oxazolidinyl]methyl]-4-(4-methoxyphenyl)-4-oxobutanamide], for which the “MIC against Clinical isolates Resistant” value was 4 to 8 µg/mL. In the case of `CC(=O)Nc1ccc(C(=O)CCC(=O)NC[C@H]2CN(c3ccc(N4CCCCC4)c(F)c3)C(=O)O2)cc1` [Compound 54, (S)-N-[[3-(3-fluoro-4-piperidylphenyl)-2-oxo-5-oxazolidinyl]methyl]-4-(4-acetamidophenyl)-4-oxobutanamide], the “MIC against Clinical isolates Resistant” value was over 16 µg/mL. In the case of `O=C(CCC(=O)c1ccc2ccccc2c1)NC[C@H]1CN(c2ccc(N3CCCC3)c(F)c2)C(=O)O1` [Compound 57, (S)-N-[[3-(3-fluoro-4-pyrrolidinylphenyl)-2-oxo-5-oxazolidinyl]methyl]-4-(2-naphthyl)-4-oxobutanamide], the “MIC against Clinical isolates Resistant” value is over 16 µg/mL.

The same assay, now with this note: Table II.
In the case of `O=C(CCC(=O)c1ccc2ccccc2c1)NC[C@H]1CN(c2ccc([N+]3([O-])CCOCC3)c(F)c2)C(=O)O1` [Compound 30, (S)-N-[[3-(3-fluoro-4-morpholinylphenyl)-2-oxo-5-oxazolidinyl]methyl]-4-(4-2-naphthyl)-4-oxobutanamide-N-oxide], the “MIC M. tuberculosis Resistant” value fell in the range of 0.50 to 2.0 µg/mL.
